From PubChem BioAssay AID248 (DTP/NCI, 2004)
Toxic doses and inconclusive results are not listed. Square brackets hold non-standard residues; d marks the D form. Peptide text beside a SMILES is read from it. ξ: configuration not given here. ξF = NC(Cc1ccccc1)C(=O)O

System: L1210 leukemia ip in BDF1 mice, survival T/C
Assay: NCI In Vivo Anticancer Drug Screen. Data for tumor model L1210 Leukemia (intraperitoneal) in B6D2F1 (BDF1) mice
Conditions: endpoint: mean survival time, higher = longer survival
Procedure, shortened: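 Survival endpoint. Drug-treated group vs vehicle group, expressed as T divided by C. Tumor passaged by transplantation.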

[1] = dose: 100.0 mg/kg/injection, schedule: Q01DX001 (ip), vehicle: saline

SMILES: Cc1cc2c3ccccc3ccc2[n+]2ccccc12
- T/C (dose: 4.5 mg/kg/injection, schedule: Q01DX009 (ip), vehicle: acetone): 115 % of control
- T/C (dose: 4.5 mg/kg/injection, schedule: Q01DX009 (ip), vehicle: saline): 100 % of control
- T/C (dose: 9.0 mg/kg/injection, schedule: Q01DX009 (ip), vehicle: acetone): 120 % of control
- T/C (dose: 9.0 mg/kg/injection, schedule: Q01DX009 (ip), vehicle: saline): 110 % of control
- T/C (dose: 18.0 mg/kg/injection, schedule: Q01DX009 (ip), vehicle: acetone): 115 % of control
- T/C (dose: 18.0 mg/kg/injection, schedule: Q01DX009 (ip), vehicle: saline): 120 % of control
- T/C [1]: 107 % of control

SMILES: CC1CCC(NC(=O)N(CCF)N=O)CC1 (stereo unspecified)
- T/C (dose: 8.0 mg/kg/injection, schedule: Q01DX001 (ip), vehicle: other): 115 % of control
- T/C (dose: 26.0 mg/kg/injection, schedule: Q01DX001 (ip), vehicle: other): 433 % of control
- T/C (dose: 40.0 mg/kg/injection, schedule: Q01DX001 (ip), vehicle: other): 500 % of control
- T/C (dose: 60.0 mg/kg/injection, schedule: Q01DX001 (ip), vehicle: other): 437 % of control

SMILES: C[S+]1C=Cc2ccccc2C1c1ccc(Cl)cc1 (stereo unspecified)
- T/C (dose: 25.0 mg/kg/injection, schedule: Q04DX002 (ip), vehicle: Klucel (hydroxypropylcellulose) (HPC)): 117 % of control

SMILES: COC1OC(COC(c2ccccc2)(c2ccccc2)c2ccccc2)C2SC12 (stereo unspecified)
- T/C (dose: 50.0 mg/kg/injection, schedule: Q01DX001 (ip), vehicle: carboxymethylcellulose (CMC)): 102 % of control
- T/C (dose: 100.0 mg/kg/injection, schedule: Q01DX001 (ip), vehicle: carboxymethylcellulose (CMC)): 107 % of control
- T/C (dose: 200.0 mg/kg/injection, schedule: Q01DX001 (ip), vehicle: carboxymethylcellulose (CMC)): 100 % of control
- T/C (dose: 400.0 mg/kg/injection, schedule: Q01DX001 (ip), vehicle: carboxymethylcellulose (CMC)): 96 % of control

SMILES: CCc1nc(N)ncc1-c1ccc([N+](=O)[O-])cc1O
- T/C (dose: 100.0 mg/kg/injection, schedule: Q04DX002 (ip), vehicle: Klucel (hydroxypropylcellulose) (HPC)): 97 % of control
- T/C (dose: 200.0 mg/kg/injection, schedule: Q04DX002 (ip), vehicle: Klucel (hydroxypropylcellulose) (HPC)): 100 % of control
- T/C (dose: 400.0 mg/kg/injection, schedule: Q04DX002 (ip), vehicle: Klucel (hydroxypropylcellulose) (HPC)): 90 % of control

SMILES: COc1cc(/C=N/NC(=O)C(=O)N/N=C/c2cc(OC)c(OC)c(OC)c2)cc(OC)c1OC
- T/C (dose: 75.0 mg/kg/injection, schedule: Q01DX001 (ip), vehicle: other): 94 % of control
- T/C (dose: 150.0 mg/kg/injection, schedule: Q01DX001 (ip), vehicle: other): 90 % of control
- T/C (dose: 300.0 mg/kg/injection, schedule: Q01DX001 (ip), vehicle: other): 89 % of control

SMILES: CCc1c(Nc2ccc(C)cc2)[nH]c(N)nc1=S
- T/C (dose: 200.0 mg/kg/injection, schedule: Q01DX Z (ip), vehicle: methylcellulose (MC)): 89 % of control

SMILES: CCN(CC)C(=O)/C=C/c1ccccc1
- T/C (dose: 50.0 mg/kg/injection, schedule: Q01DX001 (ip), vehicle: saline): 102 % of control
- T/C [1]: 96 % of control
- T/C (dose: 200.0 mg/kg/injection, schedule: Q01DX001 (ip), vehicle: saline): 96 % of control

SMILES: NCC(=O)NCC(=O)NC(Cc1ccccc1)C(=O)O (stereo not drawn) (H-Gly-Gly-[ξF]-OH)
- T/C (dose: 100.0 mg/kg/injection, schedule: Q01DX009 (ip), vehicle: saline): 109 % of control
- T/C (dose: 100.0 mg/kg/injection, schedule: Q04DX003 (ip), vehicle: saline): 110 % of control
- T/C (dose: 200.0 mg/kg/injection, schedule: Q01DX009 (ip), vehicle: saline): 107 % of control
- T/C (dose: 200.0 mg/kg/injection, schedule: Q04DX003 (ip), vehicle: saline): 100 % of control
- T/C (dose: 400.0 mg/kg/injection, schedule: Q01DX009 (ip), vehicle: saline): 101 % of control
- T/C (dose: 400.0 mg/kg/injection, schedule: Q04DX003 (ip), vehicle: saline): 101 % of control

SMILES: CCCCN(CCCC)P(=S)(OCC)OCC
- T/C (dose: 100.0 mg/kg/injection, schedule: Q04DX003 (ip), vehicle: saline with Tween-80): 100 % of control
- T/C (dose: 200.0 mg/kg/injection, schedule: Q04DX003 (ip), vehicle: saline with Tween-80): 102 % of control
- T/C (dose: 400.0 mg/kg/injection, schedule: Q04DX003 (ip), vehicle: saline with Tween-80): 104 % of control

SMILES: O=C(O)C1CCOCC1
- T/C (dose: 100.0 mg/kg/injection, schedule: Q01DX009 (ip), vehicle: Klucel (hydroxypropylcellulose) (HPC)): 98 % of control
- T/C (dose: 100.0 mg/kg/injection, schedule: Q04DX003 (ip), vehicle: Klucel (hydroxypropylcellulose) (HPC)): 96 % of control
- T/C (dose: 200.0 mg/kg/injection, schedule: Q01DX009 (ip), vehicle: Klucel (hydroxypropylcellulose) (HPC)): 95 % of control
- T/C (dose: 200.0 mg/kg/injection, schedule: Q04DX003 (ip), vehicle: Klucel (hydroxypropylcellulose) (HPC)): 89 % of control
- T/C (dose: 400.0 mg/kg/injection, schedule: Q01DX009 (ip), vehicle: Klucel (hydroxypropylcellulose) (HPC)): 111 % of control
- T/C (dose: 400.0 mg/kg/injection, schedule: Q04DX003 (ip), vehicle: Klucel (hydroxypropylcellulose) (HPC)): 88 % of control
